Data published in the supplement of paper PMC10307832.

Experiments:
Experiment in all cases: relative viability (nuclei count vs DMSO), 5 days (fraction); higher = more cells survive
CUDC-101 + Foretinib = compound: C#Cc1cccc(Nc2ncnc3cc(OC)c(OCCCCCCC(=O)NO)cc23)c1 [CUDC-101] + COc1cc2c(Oc3ccc(NC(=O)C4(C(=O)Nc5ccc(F)cc5)CC4)cc3F)ccnc2cc1OCCCN1CCOCC1 [Foretinib] (partner 0.25 µM)
Summary of the method: (§1)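 Cells from lung cancer lines were seeded into 1536-well plates and, one day later, dosed by pin tool. Treatments were either a single drug or a fixed dose of an anchor drug with five library-drug doses (not always all listed) in √10 steps. After 5 days, nuclei were stained in a one-step fixation (final 0.05% Triton X-100, 1% formaldehyde, 1 ug/ml Hoechst) and counted on 4× images, and relative viability is the treated-to-vehicle nuclei ratio, as the median of duplicate plates.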

CUDC-101 + OSI-027 = compound: C#Cc1cccc(Nc2ncnc3cc(OC)c(OCCCCCCC(=O)NO)cc23)c1 [CUDC-101] + COc1cccc2cc(-c3nc([C@H]4CC[C@H](C(=O)O)CC4)n4ncnc(N)c34)[nH]c12 [OSI-027] (partner 0.5 µM)
Summary of the method: as §1

CUDC-101 + Tozasertib = compound: C#Cc1cccc(Nc2ncnc3cc(OC)c(OCCCCCCC(=O)NO)cc23)c1 [CUDC-101] + Cc1cc(Nc2cc(N3CCN(C)CC3)nc(Sc3ccc(NC(=O)C4CC4)cc3)n2)n[nH]1 [Tozasertib] (partner 0.1 µM)
Summary of the method: as §1

Vandetanib + Olaparib = compound: COc1cc2/c(=N/c3ccc(Br)cc3F)nc[nH]c2cc1OCC1CCN(C)CC1 [Vandetanib] + O=C(c1cc(Cc2n[nH]c(=O)c3ccccc23)ccc1F)N1CCN(C(=O)C2CC2)CC1 [Olaparib] (partner 8 µM)
Summary of the method: as §1

Cell Line	relative viability (CUDC-101 + Foretinib; first compound 0.01 µM)	relative viability (CUDC-101 + Foretinib; first compound 0.03162 µM)	relative viability (CUDC-101 + Foretinib; first compound 0.1 µM)	relative viability (CUDC-101 + Foretinib; first compound 0.3162 µM)	relative viability (CUDC-101 + Foretinib; first compound 1 µM)	relative viability (CUDC-101 + OSI-027; first compound 0.01 µM)	relative viability (CUDC-101 + OSI-027; first compound 0.03162 µM)	relative viability (CUDC-101 + OSI-027; first compound 0.1 µM)	relative viability (CUDC-101 + OSI-027; first compound 0.3162 µM)	relative viability (CUDC-101 + OSI-027; first compound 1 µM)	relative viability (CUDC-101 + Tozasertib; first compound 0.01 µM)	relative viability (CUDC-101 + Tozasertib; first compound 0.03162 µM)	relative viability (CUDC-101 + Tozasertib; first compound 0.1 µM)	relative viability (CUDC-101 + Tozasertib; first compound 0.3162 µM)	relative viability (CUDC-101 + Tozasertib; first compound 1 µM)	relative viability (Vandetanib + Olaparib; first compound 0.02 µM)	relative viability (Vandetanib + Olaparib; first compound 0.06325 µM)	relative viability (Vandetanib + Olaparib; first compound 0.2 µM)	relative viability (Vandetanib + Olaparib; first compound 0.6325 µM)	relative viability (Vandetanib + Olaparib; first compound 2 µM)
NCI-H2170	0.978	0.973	1.05	0.995	0.903	0.697	0.765	0.605	0.686	0.619	0.632	0.698	0.753	0.62	0.345	0.639	0.615	0.546	0.609	0.663
NCI-H1651	0.821	0.741	1.07	0.82	0.609	0.707	0.67	0.746	0.912	0.679	0.622	0.712	0.613	0.788	0.585	0.176	0.179	0.17	0.165	0.19
NCI-H460	0.991	0.917	1.02	1.03	0.93	0.701	0.62	0.734	0.762	0.555	0.379	0.393	0.396	0.629	0.373	0.37	0.399	0.336	0.45	0.462
NCI-H1734	0.968	0.775	0.863	0.898	0.451	0.641	0.577	0.638	0.608	0.38	0.256	0.257	0.23	0.216	0.202	0.58	0.576	0.679	0.612	0.572
